From publication PMC10854894, “A New Benzo[6,7]oxepino[3,2-b] Pyridine Derivative Induces Apoptosis in Canine Mammary Cancer Cell Lines” (Animals : an Open Access Journal from MDPI, 2024) come the findings set out here.

Assay type in all cases: cell-based, canine
Test [1] deals with REM134 cells. Nature of the test: Relative mRNA expression by qRT-PCR. How it is done:
(§1) After the treatment of the cells with MPOBA at varying concentrations from 0 to 200 µM for 48 h, the total RNA was isolated using a GeneJet RNA Purification kit (Thermo Fisher Scientific, Waltham, MA, USA) according to the manufacturer’s protocol for adherent tissue culture cells using the spin-column method. The RNA’s concentration and purity (A260/A280 ratio) were spectrophotometrically determined using a NanoDrop One/OneC Microvolume UV-Vis Spectrophotometer (Thermo Fisher Scientific, Waltham, MA, USA). To remove genomic DNA contamination, the samples were treated with RQ1 RNase-Free DNase (Promega, Madison, WI, USA) according to the manufacturer’s instructions. First-strand cDNA was obtained using a SuperScript® III First-Strand Synthesis kit for reverse-transcription polymerase chain reaction (RT-PCR) (Invitrogen, Carlsbad, CA, USA) according to the manufacturer’s protocol. Briefly, total RNA (1 μg), oligo (dT) primers (50 µM), a dNTP mix (10 mM), the cDNA synthesis mix, and nuclease-free water were added to obtain a final volume of 20 µL. PCR amplification was performed using a G-Storm GS482 PCR thermal cycler (Gene Technologies, Somerset, UK) with the following reaction profile: 65 °C for 5 min, 50 °C for 50 min, 85 °C for 5 min, and 37 °C for 5 min. The relative mRNA expression levels of canine SNAIL, SLUG, TWIST, E-cadherin, N-cadherin, TP53, EGFR, BAX, and BCL-2 were normalized to canine glyceraldehyde 3-phosphate dehydrogenase (GAPDH). The relative mRNA expression levels were calculated using the 2^–∆∆ Cq method. The transcriptional levels of all genes were determined in four replicates via qRT-PCR using a CFX 96 Touch real-time PCR detection system (Bio-Rad, Hercules, CA, USA). The qRT-PCR was performed using a reaction mixture containing 2 μL of the cDNA template, 10 μL of the iTaq Universal SYBR Green Supermix (Bio-Rad, Hercules, CA, USA), and 1 μL of each primer. The qRT-PCR protocol for the SNAIL, SLUG, TWIST, EGFR, TP53, BAX, BCL-2, and GAPDH genes was carried out as follows: initial denaturation at 94 °C for 3 min, denaturation at 94 °C for 15 s, annealing at 60 °C for 30 s, and extension at 72 °C for 1 min (40 cycles), and dissociation curves were generated between 65 °C and 95 °C to assess the specificity of the amplicons. The qRT-PCR protocol for E-cadherin and N-cadherin was carried out according to Yu et al..
Background: Quantitative PCR measures a nucleic acid by following its amplification.

For another test, the system named is CMGT071020 cells. Nature of the test: Relative mRNA expression by qRT-PCR. The protocol:
as §1

In test [2] the test system is REM134 cells. Nature of the test: Immunohistochemistry of vimentin and cytokeratin, Allred score. Conditions: REM134, 0-200 µM, 48 h, treatment vs control. How it is done:
The cells were cultured in a T-25 cell culture flask (SPL life science, Gyeonggi-do, Republic of Korea) at a density of 2 × 10^5 cells/well and allowed to incubate for 24 h until they reached 60–70% confluence. They were subsequently treated with MPOBA at varying concentrations from 0 to 200 µM for 48 h. After treatment, cells were harvested using TrypLE and subjected to centrifugation at 1200 rpm for 5 min to obtain cell pellets. Then, the supernatant was replaced with 10% formalin, and the cell pellets were fixed overnight. The fixed cell pellets were embedded in paraffin blocks and sectioned with a thickness of 3 μm. These slide sections were then subjected to the deparaffinization and rehydration processes. For antigen retrieval, a heat-induced method was adopted, utilizing a vegetable steamer in a citrate buffer (pH = 6) at 90–100 °C for 45 min, followed by a cooling period of 30 min. After these preparatory steps, slides were mounted on cover plates within a Sequenza slide rack (Thermo Scientific, Waltham, MA, USA), void of air bubbles, and filled with Tris-buffered saline (TBS) (pH = 7.6). The immunohistochemical detection employed a Novolink™ Polymer Detection Kit (Leica Biosystems, Newcastle, UK) according to the manufacturer’s instructions. This began with the inhibition of endogenous peroxidase activity with a 150 μL peroxidase block at room temperature for 5 min, followed by washing with TBS three times for 3 min each. Subsequently, a 150 μL protein block was applied, incubated for 5 min, and washed three times with TBS for 3 min. Primary antibodies, including a vimentin (VT) mouse anti-human monoclonal antibody (Clone V9, ready-to-use kit, Leica Biosystems, Newcastle, UK) and a multi-cytokeratin (CK) mouse antibody (Clone AE1/AE3, ready-to-use kit, Leica Biosystems, Newcastle, UK), were incubated at 37 °C for 1 h. […]
A quantitative evaluation of the stained slides was performed utilizing the Allred scoring method and QuPath bioimaging software version 0.4.4 [48] to mitigate potential biases. […] The positive cells were systematically detected using the “positive cell detection” command in the analyze menu. The Allred score was calculated according to the quantity of marked cells and the intensity of the staining, as shown in Table S1. […] The scores and criteria used to quantify the labeled cells were 0, no labeling; 1, labeling in <1% of cells; 2, labeling in 1–10% of cells; 3, labeling in 11–33% of cells; 4, labeling in 34–66% of cells; and 5, labeling in 67–100% of cells. […] The staining intensity was determined visually. The sum of these criteria for each sample determined the final score.

Where [3] appears, read: REM134, 200 µM, 48 h, vs control.
The mark [4] stands for this setting: REM134, 48 h, treated vs untreated.
Where [5] appears, read: CMGT071020, 200 µM, 48 h, vs control.

Consider `Cc1ncccc1Oc1ccccc1C=O` [MPOBA, 2-((2-methylpyridin-3-yl)oxy)benzaldehyde], for which, in the test on REM134 cells [1] (setting [3]), the “BAX mRNA expression level” value is “dramatically increased”, the “BCL-2 mRNA expression level” value is “significantly decreased” and the “TP53 mRNA expression level” value was “significantly increased”. Besides, in the test on REM134 cells [1] (setting [4]), the “SLUG mRNA expression level” value is listed as “not significantly different” and the “TWIST mRNA expression level” value is “not significantly different”. Besides, in the test with REM134 cells [1] (REM134, 48 h, vs control), the “E-cadherin mRNA expression level” value was “upregulation”, the “EGFR mRNA expression level” value is “significantly decreased”, the “N-cadherin mRNA expression level” value is “significant downregulation” and the “SNAIL mRNA expression level” value is listed as “significant downregulation”. Moreover, in the test on CMGT071020 cells (setting [5]), the “BAX mRNA expression level” value is listed as “dramatically increased”, the “BCL-2 mRNA expression level” value is “significantly decreased” and the “TP53 mRNA expression level” value is “significantly increased”. The “TWIST mRNA expression level” value in the test on CMGT071020 cells (CMGT071020, 48 h, treated vs untreated) is “not significantly different”. Further, in the test with CMGT071020 cells (CMGT071020, 48 h, vs control), the “E-cadherin mRNA expression level” value is “upregulation”, the “EGFR mRNA expression level” value is reported as “significantly decreased”, the “N-cadherin mRNA expression level” value is “significant downregulation” and the “SLUG mRNA expression level” value was “significant downregulation”. The “SNAIL mRNA expression level” value in the test on CMGT071020 cells (CMGT071020, 48 h, vs control) was “significant downregulation”. Further, in the test with REM134 cells [2], the “cytokeratin (CK) expression, Allred score” value is listed as “no statistically significant difference” and the “vimentin (VT) expression, Allred score” value is given as “no statistically significant difference”.
